Assay results from ChEMBL document CHEMBL1201862, “PubChem BioAssay data set” (2004).
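Compound exposure: 48 hours, 5 concentrations, 96-well plates. At the GI50, growth is halved.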 Active and inactive are the calls of the source. Rule as the data show it: active = GI50 up to about 1.1 µM and inactive = higher.

Key:
Test in all cases: growth of human tumour cells (NCI), 48 h
TK-10 = system: TK-10
HL-60 = system: HL-60
MDA-MB-435 = system: MDA-MB-435
COLO 205 = system: COLO 205
CCRF-CEM = system: CCRF-CEM
A549 = system: A549
NCI-H226 = system: NCI-H226
HT-29 = system: HT-29
OVCAR-8 = system: OVCAR-8
UO-31 = system: UO-31
T47D = system: T47D
UACC-62 = system: UACC-62
KM12 = system: KM12
RPMI-8226 = system: RPMI-8226
SF-539 = system: SF-539
EKVX = system: EKVX
NCI-H460 = system: NCI-H460
NCI/ADR-RES = system: NCI/ADR-RES
SR = system: SR
OVCAR-4 = system: OVCAR-4

Cc1ccc(NCC2CC/C(=C\c3ccc(Cl)cc3)C2=O)cc1 (stereo not given)
GI50 (TK-10): 11.3 µM (inactive) | GI50 (HL-60): 2.16 µM (inactive) | GI50 (MDA-MB-435): 14.4 µM (inactive) | GI50 (COLO 205): 14.8 µM (inactive) | GI50 (CCRF-CEM): 2.39 µM (inactive) | GI50 (A549): 49.4 µM (inactive) | GI50 (NCI-H226): > 76.6 µM (inactive) | GI50 (HT-29): 12.4 µM (inactive) | GI50 (OVCAR-8): 15.9 µM (inactive) | GI50 (UO-31): 21.2 µM (inactive) | GI50 (T47D): 15.1 µM (inactive) | GI50 (UACC-62): 18.4 µM (inactive) | GI50 (KM12): 5.66 µM (inactive) | GI50 (RPMI-8226): 0.635 µM (active) | GI50 (SF-539): 23.7 µM (inactive) | GI50 (EKVX): 52.7 µM (inactive) | GI50 (NCI-H460): 21.7 µM (inactive) | GI50 (NCI/ADR-RES): 33.7 µM (inactive) | GI50 (SR): 3.87 µM (inactive) | GI50 (OVCAR-4): 24.4 µM (inactive)

O=C(NC(=S)Nc1ccc2c(c1)Sc1ccccc1O2)c1ccc([N+](=O)[O-])cc1
GI50 (TK-10): > 100 µM (inactive) | GI50 (HL-60): > 100 µM (inactive) | GI50 (MDA-MB-435): > 100 µM (inactive) | GI50 (COLO 205): > 100 µM (inactive) | GI50 (CCRF-CEM): > 100 µM (inactive) | GI50 (A549): > 100 µM (inactive) | GI50 (NCI-H226): > 100 µM (inactive) | GI50 (HT-29): > 100 µM (inactive) | GI50 (OVCAR-8): > 100 µM (inactive) | GI50 (UO-31): > 100 µM (inactive) | GI50 (T47D): > 100 µM (inactive) | GI50 (UACC-62): > 100 µM (inactive) | GI50 (KM12): > 100 µM (inactive) | GI50 (RPMI-8226): > 100 µM (inactive) | GI50 (SF-539): > 100 µM (inactive) | GI50 (EKVX): > 100 µM (inactive) | GI50 (NCI-H460): > 100 µM (inactive) | GI50 (NCI/ADR-RES): > 100 µM (inactive) | GI50 (SR): > 100 µM (inactive) | GI50 (OVCAR-4): > 100 µM (inactive)

OC(c1ccoc1)c1cc2ccccc2s1 (stereo not given)
GI50 (TK-10): > 10 µM (inactive) | GI50 (HL-60): > 10 µM (inactive) | GI50 (MDA-MB-435): > 10 µM (inactive) | GI50 (COLO 205): > 10 µM (inactive) | GI50 (CCRF-CEM): > 10 µM (inactive) | GI50 (A549): > 10 µM (inactive) | GI50 (NCI-H226): > 10 µM (inactive) | GI50 (HT-29): > 10 µM (inactive) | GI50 (OVCAR-8): > 10 µM (inactive) | GI50 (UO-31): > 10 µM (inactive) | GI50 (T47D): > 10 µM (inactive) | GI50 (UACC-62): > 10 µM (inactive) | GI50 (KM12): > 10 µM (inactive) | GI50 (RPMI-8226): > 10 µM (inactive) | GI50 (SF-539): > 10 µM (inactive) | GI50 (EKVX): > 10 µM (inactive) | GI50 (NCI-H460): > 10 µM (inactive) | GI50 (NCI/ADR-RES): > 10 µM (inactive) | GI50 (SR): > 10 µM (inactive) | GI50 (OVCAR-4): > 10 µM (inactive)

COc1cc(/C=C/c2ccc(C)cc2)cc(OC)c1OC
GI50 (TK-10): 7.69 µM (inactive) | GI50 (HL-60): 2.97 µM (inactive) | GI50 (MDA-MB-435): 1.14 µM (inactive) | GI50 (COLO 205): 3.16 µM (inactive) | GI50 (CCRF-CEM): 3.45 µM (inactive) | GI50 (A549): 4.27 µM (inactive) | GI50 (NCI-H226): 4.29 µM (inactive) | GI50 (HT-29): 2.69 µM (inactive) | GI50 (OVCAR-8): 4.43 µM (inactive) | GI50 (UO-31): 4.49 µM (inactive) | GI50 (T47D): 4.1 µM (inactive) | GI50 (UACC-62): 3.44 µM (inactive) | GI50 (KM12): 3.66 µM (inactive) | GI50 (RPMI-8226): 3.8 µM (inactive) | GI50 (SF-539): 2.42 µM (inactive) | GI50 (EKVX): 4.7 µM (inactive) | GI50 (NCI-H460): 3.85 µM (inactive) | GI50 (NCI/ADR-RES): 2.07 µM (inactive) | GI50 (SR): 2.52 µM (inactive) | GI50 (OVCAR-4): 17.3 µM (inactive)

NC(=S)N/N=C/c1c[nH]c2ccccc12
GI50 (TK-10): > 100 µM (inactive) | GI50 (HL-60): 33.7 µM (inactive) | GI50 (MDA-MB-435): > 100 µM (inactive) | GI50 (COLO 205): > 100 µM (inactive) | GI50 (CCRF-CEM): 10.8 µM (inactive) | GI50 (A549): > 100 µM (inactive) | GI50 (NCI-H226): > 100 µM (inactive) | GI50 (HT-29): > 100 µM (inactive) | GI50 (OVCAR-8): > 100 µM (inactive) | GI50 (UO-31): > 100 µM (inactive) | GI50 (T47D): 99.3 µM (inactive) | GI50 (UACC-62): > 100 µM (inactive) | GI50 (KM12): > 100 µM (inactive) | GI50 (RPMI-8226): 79.6 µM (inactive) | GI50 (SF-539): > 100 µM (inactive) | GI50 (EKVX): 2.86 µM (inactive) | GI50 (NCI-H460): > 100 µM (inactive) | GI50 (NCI/ADR-RES): > 100 µM (inactive) | GI50 (SR): > 100 µM (inactive) | GI50 (OVCAR-4): > 100 µM (inactive)
